Data published in ChEMBL document CHEMBL5465560, “Selectivity Literature for EUbOPEN Chemogenomic Library” (2024).

Key:
[1] = tested on: Receptor-type tyrosine-protein kinase FLT3 (Homo sapiens), P36888 [UNDEFINED MUTATION]; experiment: Selectivity interaction (KinomeScan (DiscoverX)) EUB0000311b FLT3; details: at 1 µM
[2] = biological target: T1, Protein kinase C iota type (Homo sapiens) (UniProt P41743); experiment: Selectivity interaction (ActivX KiNativ screen (kinase selectivity in THP-1 cell lysates)) EUB0000639a PRKCI; format: subcellular; details: lysate, at 0.2 µM
T1 sequence (whole entry): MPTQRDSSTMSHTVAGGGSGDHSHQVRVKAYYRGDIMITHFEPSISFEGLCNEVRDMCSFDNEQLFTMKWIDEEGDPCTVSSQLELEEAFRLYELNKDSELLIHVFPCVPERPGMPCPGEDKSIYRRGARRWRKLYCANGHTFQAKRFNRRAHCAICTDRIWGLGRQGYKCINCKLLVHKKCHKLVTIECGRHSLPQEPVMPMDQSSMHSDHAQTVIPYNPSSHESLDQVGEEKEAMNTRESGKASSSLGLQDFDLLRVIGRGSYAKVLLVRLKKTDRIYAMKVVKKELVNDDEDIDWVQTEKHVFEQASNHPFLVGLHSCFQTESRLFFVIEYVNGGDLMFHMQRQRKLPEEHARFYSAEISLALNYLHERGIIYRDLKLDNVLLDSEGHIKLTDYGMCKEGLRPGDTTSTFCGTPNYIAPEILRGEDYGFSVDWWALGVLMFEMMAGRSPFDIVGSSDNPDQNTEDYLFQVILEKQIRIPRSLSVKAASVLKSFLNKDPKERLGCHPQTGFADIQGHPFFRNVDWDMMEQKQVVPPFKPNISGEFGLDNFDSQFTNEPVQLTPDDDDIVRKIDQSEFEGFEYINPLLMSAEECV

[3] = biological target: T2, Histone-lysine N-methyltransferase SETD7 (Homo sapiens) (UniProt Q8WTS6); experiment: Selectivity interaction (Methyltransferase screen (Scintillation proximity assays)) EUB0000255b SETD7
T2 sequence (whole entry): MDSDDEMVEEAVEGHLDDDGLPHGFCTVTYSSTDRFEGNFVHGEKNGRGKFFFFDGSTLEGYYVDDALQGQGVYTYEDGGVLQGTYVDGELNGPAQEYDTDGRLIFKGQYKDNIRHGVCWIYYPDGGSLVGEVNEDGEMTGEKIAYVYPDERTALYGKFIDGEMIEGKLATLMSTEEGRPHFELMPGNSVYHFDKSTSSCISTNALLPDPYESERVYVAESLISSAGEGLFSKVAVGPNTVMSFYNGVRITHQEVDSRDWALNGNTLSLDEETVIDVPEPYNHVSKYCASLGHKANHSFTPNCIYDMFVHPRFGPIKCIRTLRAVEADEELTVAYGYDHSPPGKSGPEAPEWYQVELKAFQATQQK

[4] = biological target: Serine/threonine-protein kinase 24 (Homo sapiens) (UniProt Q9Y6E0); experiment: Selectivity interaction (KinomeScan (DiscoverX)) EUB0000695a STK24; details: at 100 nM
[5] = biological target: Serine/threonine-protein kinase 32B (Homo sapiens) (UniProt Q9NY57); experiment: Selectivity interaction (KinomeScan (DiscoverX)) EUB0000595a STK32B; details: at 10 µM
[6] = biological target: Serine/threonine-protein kinase MARK2 (Homo sapiens) (UniProt Q7KZI7); experiment: Selectivity interaction (Kinase screening (Nanosyn)) EUB0000604a MARK2
[7] = biological target: Epithelial discoidin domain-containing receptor 1 (Homo sapiens) (UniProt Q08345); experiment: Selectivity interaction (Ambit KINOMEscan and KiNATiv profiling in Jurkat cells) EUB0000090b DDR1; format: cell-based; details: at 1 µM
[8] = biological target: Transcription initiation factor TFIID subunit 1 (Homo sapiens) (UniProt P21675); experiment: Selectivity interaction (Bromodomain panel (DSF asssay)) EUB0000270b TAF1
[9] = biological target: Interleukin-1 receptor-associated kinase 1 (Homo sapiens) (UniProt P51617); experiment: Selectivity interaction (KinomeScan (DiscoverX)) EUB0000092b IRAK1; details: at 10 µM
[10] = biological target: Insulin-like growth factor 1 receptor (Homo sapiens, UniProt P08069); details: at 10 µM
[11] = biological target: T3, Ephrin type-A receptor 3 (Homo sapiens) (UniProt P29320); details: at 10 µM
T3 sequence (whole entry): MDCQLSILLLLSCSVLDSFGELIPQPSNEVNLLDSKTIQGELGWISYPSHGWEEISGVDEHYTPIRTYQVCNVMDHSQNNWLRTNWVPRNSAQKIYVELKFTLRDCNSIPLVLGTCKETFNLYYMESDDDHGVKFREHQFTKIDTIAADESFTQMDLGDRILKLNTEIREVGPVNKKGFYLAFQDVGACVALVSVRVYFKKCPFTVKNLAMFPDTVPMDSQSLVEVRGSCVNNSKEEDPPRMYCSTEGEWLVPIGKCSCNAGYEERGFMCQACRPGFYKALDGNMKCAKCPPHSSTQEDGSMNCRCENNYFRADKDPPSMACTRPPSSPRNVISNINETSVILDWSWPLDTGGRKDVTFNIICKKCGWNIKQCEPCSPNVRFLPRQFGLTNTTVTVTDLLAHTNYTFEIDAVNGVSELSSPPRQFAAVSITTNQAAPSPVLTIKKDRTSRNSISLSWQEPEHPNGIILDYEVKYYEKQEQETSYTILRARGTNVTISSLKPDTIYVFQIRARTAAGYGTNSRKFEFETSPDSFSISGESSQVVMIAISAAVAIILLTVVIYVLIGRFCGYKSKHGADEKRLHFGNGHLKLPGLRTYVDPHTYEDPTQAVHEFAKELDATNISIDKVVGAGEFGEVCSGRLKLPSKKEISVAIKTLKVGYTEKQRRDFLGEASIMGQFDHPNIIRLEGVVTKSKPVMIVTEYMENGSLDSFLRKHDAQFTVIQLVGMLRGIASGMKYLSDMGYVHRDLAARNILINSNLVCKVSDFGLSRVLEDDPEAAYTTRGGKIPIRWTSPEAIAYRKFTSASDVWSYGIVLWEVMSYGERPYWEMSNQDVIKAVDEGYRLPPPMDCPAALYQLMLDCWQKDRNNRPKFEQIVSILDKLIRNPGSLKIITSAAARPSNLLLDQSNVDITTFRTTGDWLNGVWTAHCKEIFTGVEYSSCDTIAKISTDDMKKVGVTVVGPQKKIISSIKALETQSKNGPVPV

[12] = biological target: Ribosomal protein S6 kinase alpha-5 (Homo sapiens) (UniProt O75582); experiment: Selectivity interaction (KinomeScan (DiscoverX)) EUB0001619a RPS6KA5; details: at 1 µM

Serine/threonine-protein kinase 32B (Homo sapiens), sequence (Q9NY57 whole entry): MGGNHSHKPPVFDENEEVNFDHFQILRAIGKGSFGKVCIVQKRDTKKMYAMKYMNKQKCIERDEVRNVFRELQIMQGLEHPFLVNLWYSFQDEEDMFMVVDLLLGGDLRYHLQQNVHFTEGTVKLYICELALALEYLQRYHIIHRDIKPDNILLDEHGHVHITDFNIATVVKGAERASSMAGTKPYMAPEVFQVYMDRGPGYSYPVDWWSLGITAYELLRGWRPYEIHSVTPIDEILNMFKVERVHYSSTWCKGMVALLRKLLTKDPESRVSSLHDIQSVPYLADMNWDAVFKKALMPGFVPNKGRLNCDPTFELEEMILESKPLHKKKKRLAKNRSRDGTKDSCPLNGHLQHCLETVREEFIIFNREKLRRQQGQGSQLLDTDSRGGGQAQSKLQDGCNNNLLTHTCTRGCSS
Insulin-like growth factor 1 receptor, sequence (P08069 31-736 limits assumed): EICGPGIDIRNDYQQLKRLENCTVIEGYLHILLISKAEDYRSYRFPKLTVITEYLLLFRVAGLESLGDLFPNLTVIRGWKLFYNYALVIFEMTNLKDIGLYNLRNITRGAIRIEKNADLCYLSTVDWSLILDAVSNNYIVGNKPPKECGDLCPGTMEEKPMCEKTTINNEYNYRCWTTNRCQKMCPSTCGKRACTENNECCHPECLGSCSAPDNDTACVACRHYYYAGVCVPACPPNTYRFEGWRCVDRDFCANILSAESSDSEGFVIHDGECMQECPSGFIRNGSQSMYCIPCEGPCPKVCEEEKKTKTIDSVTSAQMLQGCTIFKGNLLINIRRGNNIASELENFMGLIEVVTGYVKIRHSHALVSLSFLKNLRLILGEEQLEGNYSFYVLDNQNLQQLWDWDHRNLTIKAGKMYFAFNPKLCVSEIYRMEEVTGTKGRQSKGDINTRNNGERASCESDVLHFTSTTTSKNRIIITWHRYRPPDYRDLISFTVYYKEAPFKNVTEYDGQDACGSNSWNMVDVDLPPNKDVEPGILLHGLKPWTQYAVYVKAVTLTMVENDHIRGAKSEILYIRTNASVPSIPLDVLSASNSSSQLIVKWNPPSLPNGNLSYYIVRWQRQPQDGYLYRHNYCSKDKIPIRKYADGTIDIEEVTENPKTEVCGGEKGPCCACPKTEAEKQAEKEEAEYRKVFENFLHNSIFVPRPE
Insulin-like growth factor 1 receptor, sequence (P08069 741-1367 limits assumed): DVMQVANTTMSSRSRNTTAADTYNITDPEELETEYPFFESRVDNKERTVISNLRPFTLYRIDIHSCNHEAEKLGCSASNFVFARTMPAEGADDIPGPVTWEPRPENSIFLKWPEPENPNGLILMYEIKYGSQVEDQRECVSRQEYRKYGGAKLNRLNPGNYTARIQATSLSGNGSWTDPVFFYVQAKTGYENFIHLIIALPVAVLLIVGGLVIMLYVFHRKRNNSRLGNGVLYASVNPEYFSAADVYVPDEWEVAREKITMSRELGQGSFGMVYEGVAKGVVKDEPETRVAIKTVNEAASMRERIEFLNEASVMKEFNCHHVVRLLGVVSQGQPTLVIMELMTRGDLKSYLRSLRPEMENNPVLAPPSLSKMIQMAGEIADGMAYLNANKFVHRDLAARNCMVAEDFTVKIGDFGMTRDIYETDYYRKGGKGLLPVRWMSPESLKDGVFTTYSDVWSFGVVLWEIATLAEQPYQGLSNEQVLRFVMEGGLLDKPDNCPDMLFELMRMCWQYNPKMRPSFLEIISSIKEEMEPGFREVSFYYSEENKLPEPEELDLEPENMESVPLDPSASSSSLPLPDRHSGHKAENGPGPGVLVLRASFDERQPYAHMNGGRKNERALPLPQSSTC
Interleukin-1 receptor-associated kinase 1 (Homo sapiens), sequence (P51617 whole entry, looked up): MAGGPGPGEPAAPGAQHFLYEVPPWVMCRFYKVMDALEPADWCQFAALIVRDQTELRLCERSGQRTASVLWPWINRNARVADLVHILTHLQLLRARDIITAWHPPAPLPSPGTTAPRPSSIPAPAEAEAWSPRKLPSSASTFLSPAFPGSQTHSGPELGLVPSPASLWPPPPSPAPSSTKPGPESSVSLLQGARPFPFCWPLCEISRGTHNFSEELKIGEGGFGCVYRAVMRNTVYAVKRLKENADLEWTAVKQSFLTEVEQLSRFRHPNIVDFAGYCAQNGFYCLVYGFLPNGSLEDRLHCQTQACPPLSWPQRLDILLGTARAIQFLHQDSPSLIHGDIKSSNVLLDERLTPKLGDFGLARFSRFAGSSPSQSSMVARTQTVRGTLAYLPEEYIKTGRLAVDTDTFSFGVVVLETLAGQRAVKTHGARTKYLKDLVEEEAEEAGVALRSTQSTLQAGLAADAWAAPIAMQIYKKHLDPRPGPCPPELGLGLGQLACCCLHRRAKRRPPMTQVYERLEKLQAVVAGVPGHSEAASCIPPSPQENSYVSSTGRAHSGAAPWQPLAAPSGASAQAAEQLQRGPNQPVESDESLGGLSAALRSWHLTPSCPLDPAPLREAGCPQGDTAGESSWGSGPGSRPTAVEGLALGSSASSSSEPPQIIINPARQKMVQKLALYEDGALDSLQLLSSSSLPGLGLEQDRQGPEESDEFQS
Transcription initiation factor TFIID subunit 1 (Homo sapiens), sequence (P21675 whole entry): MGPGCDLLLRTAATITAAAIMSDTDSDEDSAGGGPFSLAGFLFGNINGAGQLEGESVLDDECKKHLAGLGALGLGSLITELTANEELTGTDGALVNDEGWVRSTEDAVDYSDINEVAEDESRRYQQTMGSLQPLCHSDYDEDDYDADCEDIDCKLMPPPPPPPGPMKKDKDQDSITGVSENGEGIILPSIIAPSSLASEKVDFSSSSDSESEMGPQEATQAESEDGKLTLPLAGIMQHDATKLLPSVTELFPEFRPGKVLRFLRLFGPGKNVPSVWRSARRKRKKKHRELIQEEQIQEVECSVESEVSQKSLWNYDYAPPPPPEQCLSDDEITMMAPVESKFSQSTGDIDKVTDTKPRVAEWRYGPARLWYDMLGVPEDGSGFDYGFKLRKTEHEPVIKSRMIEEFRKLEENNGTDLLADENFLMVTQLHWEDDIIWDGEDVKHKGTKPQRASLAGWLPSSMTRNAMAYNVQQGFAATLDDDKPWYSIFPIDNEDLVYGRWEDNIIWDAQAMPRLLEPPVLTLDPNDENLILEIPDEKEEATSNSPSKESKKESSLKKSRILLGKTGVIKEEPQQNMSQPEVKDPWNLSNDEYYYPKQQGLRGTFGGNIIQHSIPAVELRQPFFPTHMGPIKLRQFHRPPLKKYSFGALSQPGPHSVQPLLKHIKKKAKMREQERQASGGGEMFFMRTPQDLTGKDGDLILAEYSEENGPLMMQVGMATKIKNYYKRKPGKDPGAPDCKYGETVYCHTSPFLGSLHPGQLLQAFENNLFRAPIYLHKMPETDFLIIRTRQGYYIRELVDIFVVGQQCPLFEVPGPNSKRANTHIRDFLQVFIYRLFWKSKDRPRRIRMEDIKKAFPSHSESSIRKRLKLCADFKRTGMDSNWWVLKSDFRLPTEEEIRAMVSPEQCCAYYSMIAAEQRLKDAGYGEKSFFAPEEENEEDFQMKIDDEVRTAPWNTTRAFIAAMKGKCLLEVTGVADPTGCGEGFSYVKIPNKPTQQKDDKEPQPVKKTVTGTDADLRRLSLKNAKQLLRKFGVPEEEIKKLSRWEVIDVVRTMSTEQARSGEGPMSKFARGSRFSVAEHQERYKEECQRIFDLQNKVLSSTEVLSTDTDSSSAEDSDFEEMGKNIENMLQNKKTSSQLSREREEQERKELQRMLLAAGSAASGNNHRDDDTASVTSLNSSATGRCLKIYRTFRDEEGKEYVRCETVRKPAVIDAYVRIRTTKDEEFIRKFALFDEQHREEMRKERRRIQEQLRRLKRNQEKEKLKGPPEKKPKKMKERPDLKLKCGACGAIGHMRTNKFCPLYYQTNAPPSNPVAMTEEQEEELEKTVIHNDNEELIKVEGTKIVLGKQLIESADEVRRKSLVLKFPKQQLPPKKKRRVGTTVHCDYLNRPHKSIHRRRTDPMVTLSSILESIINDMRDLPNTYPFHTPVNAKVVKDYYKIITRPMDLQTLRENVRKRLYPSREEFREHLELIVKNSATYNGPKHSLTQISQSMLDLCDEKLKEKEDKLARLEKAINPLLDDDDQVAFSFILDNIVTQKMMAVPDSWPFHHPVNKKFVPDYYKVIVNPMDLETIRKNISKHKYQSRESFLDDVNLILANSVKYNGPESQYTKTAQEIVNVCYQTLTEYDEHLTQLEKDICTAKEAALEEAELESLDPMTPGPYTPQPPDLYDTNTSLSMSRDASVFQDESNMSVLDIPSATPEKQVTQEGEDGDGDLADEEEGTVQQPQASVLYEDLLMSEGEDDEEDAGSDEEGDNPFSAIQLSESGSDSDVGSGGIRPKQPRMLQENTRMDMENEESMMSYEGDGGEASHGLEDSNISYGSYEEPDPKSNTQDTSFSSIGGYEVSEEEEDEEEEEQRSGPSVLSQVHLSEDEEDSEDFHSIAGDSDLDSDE
Serine/threonine-protein kinase 24 (Homo sapiens), sequence (Q9Y6E0 whole entry, looked up): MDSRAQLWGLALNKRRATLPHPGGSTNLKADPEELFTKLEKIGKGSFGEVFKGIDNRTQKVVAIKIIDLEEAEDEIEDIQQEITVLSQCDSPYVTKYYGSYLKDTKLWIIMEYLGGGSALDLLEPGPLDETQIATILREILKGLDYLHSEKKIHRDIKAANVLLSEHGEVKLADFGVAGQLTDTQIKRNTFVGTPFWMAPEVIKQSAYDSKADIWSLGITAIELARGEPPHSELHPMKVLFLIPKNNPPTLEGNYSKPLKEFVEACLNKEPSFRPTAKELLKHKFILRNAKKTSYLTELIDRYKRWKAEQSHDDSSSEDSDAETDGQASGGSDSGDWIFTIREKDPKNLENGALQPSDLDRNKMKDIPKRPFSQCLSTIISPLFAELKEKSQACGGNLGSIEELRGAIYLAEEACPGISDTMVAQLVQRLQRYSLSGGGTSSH

CCc1ccccc1C(=O)Nc1n[nH]c2c(C)c(F)c(C3C(C#N)=C(C)N(C)C(C)=C3C#N)cc12 [BAY-3827]
% of control [1]: 12%

CC[C@@H]1[C@H](F)C(=O)N[C@@H]1COc1nccc2cc(C(N)=O)c(OC)cc12 [ZIMLOVISERTIB]
% of inhibition [2]: 0%

COCCN1CCC(c2cc(CN(C)C(=O)c3cccc(Oc4ccccc4)c3)ccn2)CC1
% activity ([3]; at 1 µM): > 95%
% activity ([3]; at 10 µM): > 90%

Cc1cc(F)c(C(=O)Nc2cccc(-c3nncn3C(C)C)n2)cc1-n1cnc(C2CC2)c1
% of control [4]: 100%

COCC(=O)NC/C=C/c1ccc2ncnc(Nc3ccc(Oc4ccc(C)nc4)c(C)c3)c2c1 [CP-724714]
% of control [5]: 92%

Cc1cnc(Nc2ccc(F)cc2Cl)nc1-c1c[nH]c(C(=O)N[C@H](CO)c2cccc(Cl)c2)c1
% of inhibition [6]: 5%

CN(C)C/C=C/C(=O)Nc1ccc(C(=O)N2CCCC(Nc3ncc(Cl)c(-c4c[nH]c5ccccc45)n3)C2)cc1 (stereo not drawn)
% of control [7]: 93%

Cc1cc(CN)cc(C)c1-c1ncn(C)c1-c1cncn1C
dTM [8]: -1.17 K

CCC(=O)N1CCN(c2ccc(-n3c(=O)ccc4cnc5ccc(-c6cnc7ccccc7c6)cc5c43)cc2C(F)(F)F)CC1
% of control [9]: 100%

Cc1cc([C@@H](C)Nc2ccccc2C(=O)O)c2nc(N3CCOCC3)cc(=O)n2c1 [AZD-6482]
% of control [10]: 100%
% of control [11]: 79%

N#Cc1cccc(-c2c[nH]c3ncnc(N4CCOCC4)c23)c1
% of control [12]: 74%
